According to PubChem BioAssay (NCI):
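Five concentrations, 48 hours, 96-well plates. TGI: concentration producing complete growth inhibition.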

Key:
Experiment in all cases: NCI tumour cell line growth inhibition, 48 h
[1] = tested on: 786-0 renal
[2] = tested on: A498 renal
[3] = tested on: A549 NSCLC
[4] = tested on: ACHN renal
[5] = tested on: CAKI-1 renal
[6] = tested on: CCRF-CEM leukemia
[7] = tested on: COLO 205 colon
[8] = tested on: DLD-1 colon
[9] = tested on: DMS 114 small cell lung
[10] = tested on: DMS 273 small cell lung
[11] = tested on: EKVX NSCLC
[12] = tested on: HCC-2998 colon
[13] = tested on: HCT-116 colon
[14] = tested on: HCT-15 colon
[15] = tested on: HL-60(TB) leukemia
[16] = tested on: HOP-18 NSCLC
[17] = tested on: HOP-62 NSCLC
[18] = tested on: HOP-92 NSCLC
[19] = tested on: HT29 colon
[20] = tested on: IGROV1 ovarian
[21] = tested on: K-562 leukemia
[22] = tested on: KM12 colon
[23] = tested on: KM20L2 colon
[24] = tested on: LOX IMVI melanoma
[25] = tested on: LXFL 529 NSCLC
[26] = tested on: M14 melanoma
[27] = tested on: M19-MEL melanoma
[28] = tested on: MALME-3M melanoma
[29] = tested on: MOLT-4 leukemia
[30] = tested on: NCI-H226 lung
[31] = tested on: NCI-H23 lung
[32] = tested on: NCI-H460 lung
[33] = tested on: NCI-H522 lung
[34] = tested on: OVCAR-3 ovarian
[35] = tested on: OVCAR-4 ovarian
[36] = tested on: OVCAR-5 ovarian
[37] = tested on: OVCAR-8 ovarian
[38] = tested on: RPMI-8226 leukemia
[39] = tested on: RXF 393 renal
[40] = tested on: SF-268 CNS
[41] = tested on: SF-295 CNS
[42] = tested on: SF-539 CNS
[43] = tested on: SK-MEL-2 melanoma
[44] = tested on: SK-MEL-28 melanoma
[45] = tested on: SK-MEL-5 melanoma
[46] = tested on: SK-OV-3 ovarian
[47] = tested on: SN12C renal
[48] = tested on: SNB-19 CNS
[49] = tested on: SNB-75 CNS
[50] = tested on: SNB-78 CNS
[51] = tested on: SR leukemia
[52] = tested on: SW-620 colon
[53] = tested on: TK-10 renal
[54] = tested on: U251 CNS
[55] = tested on: UACC-257 melanoma
[56] = tested on: UACC-62 melanoma
[57] = tested on: UO-31 renal
[58] = tested on: XF 498 CNS
[59] = tested on: BT-549 breast
[60] = tested on: DU-145 prostate
[61] = tested on: HS 578T breast
[62] = tested on: MCF7 breast
[63] = tested on: MDA-MB-435
[64] = tested on: T-47D breast

## COC(=O)[C@@]12C(=O)CCC(=O)C1C1C(=CC2C)O[C@@H]2OC3(CCCCC3)O[C@H]12 (stereo not given in full)
[1]
  TGI: > 100 µM
[2]
  TGI: > 100 µM
[3]
  TGI: > 100 µM
[4]
  TGI: > 100 µM
[5]
  TGI: > 100 µM
[6]
  TGI: > 81 µM
[7]
  TGI: > 100 µM
[8]
  TGI: > 100 µM
[9]
  TGI: > 100 µM
[10]
  TGI: > 100 µM
[11]
  TGI: > 100 µM
[12]
  TGI: > 100 µM
[13]
  TGI: > 100 µM
[14]
  TGI: > 100 µM
[15]
  TGI: 59.1 µM
[16]
  TGI: > 100 µM
[17]
  TGI: > 100 µM
[18]
  TGI: > 100 µM
[19]
  TGI: > 100 µM
[20]
  TGI: > 100 µM
[21]
  TGI: > 100 µM
[22]
  TGI: > 100 µM
[23]
  TGI: > 100 µM
[24]
  TGI: > 100 µM
[25]
  TGI: > 100 µM
[26]
  TGI: > 100 µM
[27]
  TGI: > 100 µM
[28]
  TGI: > 100 µM
[29]
  TGI: 70.5 µM
[30]
  TGI: > 100 µM
[31]
  TGI: > 100 µM
[32]
  TGI: > 100 µM
[33]
  TGI: 38.1 µM
[34]
  TGI: > 100 µM
[35]
  TGI: > 100 µM
[36]
  TGI: > 100 µM
[37]
  TGI: > 80.2 µM
[38]
  TGI: 83.2 µM
[39]
  TGI: > 100 µM
[40]
  TGI: > 100 µM
[41]
  TGI: > 100 µM
[42]
  TGI: > 100 µM
[43]
  TGI: > 100 µM
[44]
  TGI: > 100 µM
[45]
  TGI: > 100 µM
[46]
  TGI: > 100 µM
[47]
  TGI: > 100 µM
[48]
  TGI: > 100 µM
[49]
  TGI: > 100 µM
[50]
  TGI: > 100 µM
[51]
  TGI: 58.8 µM
[52]
  TGI: > 100 µM
[53]
  TGI: > 100 µM
[54]
  TGI: > 100 µM
[55]
  TGI: > 100 µM
[56]
  TGI: > 100 µM
[57]
  TGI: > 100 µM
[58]
  TGI: > 93.6 µM

## O=C(NCc1ccccc1)c1cc2ccc(O)c(O)c2cn1
[1]
  TGI: 33.1 µM
[2]
  TGI: > 100 µM
[3]
  TGI: > 100 µM
[4]
  TGI: 29.4 µM
[5]
  TGI: 33.6 µM
[6]
  TGI: > 100 µM
[7]
  TGI: > 100 µM
[8]
  TGI: 37.8 µM
[9]
  TGI: 26.8 µM
[10]
  TGI: 32.3 µM
[11]
  TGI: > 100 µM
[12]
  TGI: > 100 µM
[13]
  TGI: 32.1 µM
[14]
  TGI: > 100 µM
[15]
  TGI: > 100 µM
[16]
  TGI: 44.5 µM
[17]
  TGI: 47.9 µM
[18]
  TGI: 33.3 µM
[19]
  TGI: > 100 µM
[20]
  TGI: 44.5 µM
[21]
  TGI: > 100 µM
[22]
  TGI: > 100 µM
[23]
  TGI: > 100 µM
[24]
  TGI: 16.2 µM
[25]
  TGI: 30.6 µM
[26]
  TGI: 19.3 µM
[27]
  TGI: 3.23 µM
[28]
  TGI: 30.4 µM
[30]
  TGI: > 100 µM
[31]
  TGI: 25.9 µM
[32]
  TGI: 39.1 µM
[33]
  TGI: 30.9 µM
[34]
  TGI: 41.6 µM
[35]
  TGI: 30.3 µM
[36]
  TGI: 58.3 µM
[37]
  TGI: 23.9 µM
[38]
  TGI: > 100 µM
[39]
  TGI: 30.5 µM
[40]
  TGI: 29.7 µM
[41]
  TGI: 31.5 µM
[42]
  TGI: 32.6 µM
[43]
  TGI: 25.4 µM
[44]
  TGI: 30.3 µM
[45]
  TGI: 23.3 µM
[46]
  TGI: > 100 µM
[47]
  TGI: 31.7 µM
[48]
  TGI: > 100 µM
[49]
  TGI: 32.9 µM
[50]
  TGI: 40.6 µM
[51]
  TGI: > 100 µM
[52]
  TGI: 37.4 µM
[53]
  TGI: > 100 µM
[54]
  TGI: 52.8 µM
[55]
  TGI: 29.1 µM
[56]
  TGI: 33.5 µM
[57]
  TGI: 36.5 µM
[58]
  TGI: 31.7 µM

## CC(=O)CC(=O)Nc1ccccc1[N+](=O)[O-]
[1]
  TGI: > 100 µM
[2]
  TGI: > 100 µM
[3]
  TGI: > 100 µM
[4]
  TGI: > 100 µM
[5]
  TGI: > 100 µM
[6]
  TGI: > 100 µM
[7]
  TGI: > 100 µM
[8]
  TGI: > 100 µM
[9]
  TGI: > 100 µM
[10]
  TGI: > 100 µM
[11]
  TGI: > 100 µM
[12]
  TGI: > 100 µM
[13]
  TGI: > 100 µM
[14]
  TGI: > 100 µM
[15]
  TGI: > 100 µM
[16]
  TGI: > 100 µM
[17]
  TGI: > 100 µM
[18]
  TGI: > 100 µM
[19]
  TGI: > 100 µM
[20]
  TGI: > 100 µM
[21]
  TGI: > 100 µM
[22]
  TGI: > 100 µM
[23]
  TGI: > 100 µM
[25]
  TGI: > 100 µM
[26]
  TGI: > 100 µM
[27]
  TGI: > 100 µM
[28]
  TGI: > 100 µM
[29]
  TGI: > 100 µM
[30]
  TGI: > 100 µM
[31]
  TGI: > 100 µM
[32]
  TGI: > 100 µM
[33]
  TGI: > 100 µM
[34]
  TGI: > 100 µM
[35]
  TGI: > 100 µM
[36]
  TGI: > 100 µM
[37]
  TGI: > 100 µM
[38]
  TGI: > 100 µM
[39]
  TGI: > 100 µM
[40]
  TGI: > 100 µM
[41]
  TGI: > 100 µM
[42]
  TGI: > 100 µM
[43]
  TGI: > 100 µM
[44]
  TGI: > 100 µM
[45]
  TGI: > 100 µM
[46]
  TGI: > 100 µM
[47]
  TGI: > 100 µM
[48]
  TGI: > 100 µM
[49]
  TGI: > 100 µM
[50]
  TGI: > 100 µM
[51]
  TGI: > 100 µM
[52]
  TGI: > 100 µM
[53]
  TGI: > 100 µM
[54]
  TGI: > 100 µM
[55]
  TGI: > 100 µM
[56]
  TGI: > 100 µM
[57]
  TGI: > 100 µM
[58]
  TGI: > 100 µM

## O=C(O)COc1ccc(C(=O)/C(SS/C(C(=O)c2ccc(OCC(=O)O)c(Cl)c2Cl)=C2\C=C(c3ccc(F)cc3)SS2)=C2/C=C(c3ccc(F)cc3)SS2)c(Cl)c1Cl
[1]
  TGI: > 57 µM
[2]
  TGI: 77.5 µM
[3]
  TGI: > 93.4 µM
[4]
  TGI: 56 µM
[59]
  TGI: 71.5 µM
[5]
  TGI: > 77.9 µM
[6]
  TGI: 18.1 µM
[7]
  TGI: 25 µM
[8]
  TGI: > 53.7 µM
[9]
  TGI: 12.7 µM
[10]
  TGI: 27.9 µM
[60]
  TGI: > 100 µM
[11]
  TGI: > 81.4 µM
[12]
  TGI: > 100 µM
[13]
  TGI: 25.6 µM
[14]
  TGI: 28.3 µM
[15]
  TGI: 6.03 µM
[16]
  TGI: 43.6 µM
[17]
  TGI: > 84.8 µM
[18]
  TGI: 15.4 µM
[61]
  TGI: 19 µM
[19]
  TGI: 70.6 µM
[20]
  TGI: 41.7 µM
[21]
  TGI: 32.6 µM
[22]
  TGI: 32.6 µM
[23]
  TGI: > 95.8 µM
[24]
  TGI: 12.9 µM
[25]
  TGI: 13.6 µM
[26]
  TGI: 54.8 µM
[27]
  TGI: 44.6 µM
[28]
  TGI: 77.3 µM
[62]
  TGI: > 100 µM
[63]
  TGI: > 100 µM
[29]
  TGI: 31.2 µM
[30]
  TGI: 40.4 µM
[31]
  TGI: 33.7 µM
[32]
  TGI: 49.1 µM
[33]
  TGI: 8.44 µM
[34]
  TGI: 20.7 µM
[35]
  TGI: 40.3 µM
[36]
  TGI: 74.7 µM
[37]
  TGI: 55.8 µM
[38]
  TGI: 31.5 µM
[40]
  TGI: 23.1 µM
[41]
  TGI: 69.8 µM
[42]
  TGI: 26.9 µM
[43]
  TGI: 34.7 µM
[44]
  TGI: 38.8 µM
[45]
  TGI: 51.5 µM
[46]
  TGI: > 88.7 µM
[47]
  TGI: 38.7 µM
[48]
  TGI: 53.7 µM
[49]
  TGI: 27.4 µM
[50]
  TGI: 43.1 µM
[51]
  TGI: 13.4 µM
[52]
  TGI: 36.3 µM
[64]
  TGI: 31.3 µM
[53]
  TGI: 99.2 µM
[54]
  TGI: 24.7 µM
[55]
  TGI: 68.8 µM
[56]
  TGI: 23.9 µM
[57]
  TGI: 36.4 µM
[58]
  TGI: 27 µM
